Measurements as given in patent US4954348A, “Non-ionic polyol contrast media from ionic contrast media” (Cook Imaging Corporation, priority 1988, dated 1990).
Where two headings read alike, the source gives them in different places.

Columns and labels:
Mice (female CD-1) = assay: i.v. LD50 in mice (systemic toxicity); format: in vivo; conditions: 300 mg I/ml, 37° C., injection rate 1 ml/min
Description: (§1) All compounds were tested for stability, solubility, osmolality, viscosity and systemic toxicity, using conventional tests.
(§2) *All at 300 mg I/ml concentration and 37° C. Injection rates 1
(§3) ml/min in mice and 5 ml/min in rats.
(§4) ^° Ref. Salvesen, S. in Acta Radiol. Suppl. 362, p. 73, 1980.

Rats (female Lewis) = assay: i.v. LD50 in rats (systemic toxicity); format: in vivo; conditions: 300 mg I/ml, 37° C., injection rate 5 ml/min
Description: as §1, §2, §3, §4

[1] = 300 mg I/ml, 37° C.; ^+ Ref. Handbook of Experimental Pharmacology, Vol. 73; cited from earlier work
[2] = 300 mg I/ml, 37° C.; ^+ Ref. Handbook of Experimental Pharmacology, Vol. 73; cited from earlier work; remark: listed apart in the source
[3] = Osmolality at 300 mg I/ml, 37° C.; format: physicochemical; conditions: for Osmolality: 300 mg I/ml, 37° C.; for osmolality versus existing compounds: existing compounds serving as control
Description: as §1, §2

[4] = Viscosity at 300 mg I/ml, 37° C.; format: physicochemical
Description: as §1, §2

[5] = stability, solubility, osmolality, viscosity and systemic toxicity, conventional tests (overall statement); conditions: existing compounds serving as control
Description: as §1

[6] = must be dispensed in lyophilized form and reconstituted prior to use; cited from earlier work

Row | SMILES | i.v. LD50 (Mice (female CD-1)) | i.v. LD50 (Rats (female Lewis)) | Osmolality [1] [mOsm/kg] | Viscosity [2] [cps] | Osmolality [3] [mOsm/kg] | osmolality versus existing compounds [3] | Viscosity [4] [cps] | stability, solubility, viscosity and systemic toxicity (other categories) versus existing compounds [5] | hydrolytic stability [6]
1 | CC(=O)N(CC(O)CO)c1c(I)c(C(=O)NCC(O)CO)c(I)c(C(=O)NCC(O)CO)c1I (stereo not shown) [Iohexol] | 17.9 gI/kg | 13.5-15 gI/kg | 690 | 6.1 |  |  |  |  | 
2 | C[C@H](O)C(=O)Nc1c(I)c(C(=O)NC(CO)CO)c(I)c(C(=O)NC(CO)CO)c1I [Iopamidol] | 17-18.5 gI/kg | 12.2-13 gI/kg | 619 | 4.5 |  |  |  |  | 
3 | COCC(=O)Nc1c(I)c(C(=O)NCC(O)CO)c(I)c(C(=O)N(C)CC(O)CO)c1I (stereo not shown) [Iopromide] | 11.5-13.0 gI/kg | 10-11.5 gI/kg | 607 | 4.8 |  |  |  |  | 
4 | CC(=O)N(CC(O)CO)c1c(I)c(C(=O)NCCO)c(I)c(C(=O)NCC(O)CO)c1I (stereo not shown) [VIII, 5-(N-2,3-Dihydroxypropylacetamido)-2,4,6-triiodo-N-(2,3-dihydroxypropyl)-N'-(2-hydroxyethyl)isophthalamide] | 18.8 gI/kg | 14-16.5 gI/kg |  |  | 524 | substantially reduced osmolality | 4.9 | comparable or superior properties in the other categories | 
5 | CNC(=O)c1c(I)c(C(=O)N[C@H](CO)[C@@H](O)CO)c(I)c(N(CC(O)CO)C(C)=O)c1I (relative stereo) [XVI, 5-(N-2,3-Dihydroxypropylacetamido)-2,4,6-triido-N-methyl-N'-(1,3,4-trihydroxy-erythro-but-2-yl)-isophthalamide] | 12-13 gI/kg | 13.5-14 gI/kg |  |  | 513 | substantially reduced osmolality | 5.2 | comparable or superior properties in the other categories | 
6 | CC(=O)Nc1c(I)c(C(=O)N[C@H]2C(O)O[C@H](CO)[C@@H](O)[C@@H]2O)c(I)c(N(C)C(C)=O)c1I (stereo partly shown) [Metrizamide] |  |  |  |  |  |  |  |  | hydrolytic instability
